Experiments:
[1] = test system: human breast cancer cell line MCF-7; set-up: method as in PMID 15639346; conditions: cited from earlier work
[2] = test system: PC-3 (human prostate carcinoma); assay: Cytotoxicity assay (Cell Counting Kit-8), PC-3; type: cell-based; conditions: 72 h of drug treatment, means ± SD of 3 independent experiments
Protocol: (§1) A549 (human lung carcinoma), Hep-3B (human liver carcinoma), PC-3 (human prostate carcinoma), HT29 (human colon carcinoma), U937 (human monoblastic leukemia), and RAW 264.7 cells were purchased from the Food Industry Research and Development Institute (Hsinchu, Taiwan) and cultured in 10% heat-inactivated fetal bovine serum (FBS) in DMEM or RPMI-1640. Cell viability was determined by using Cell Counting Kit-8 (CCK-8; Dojindo, Rockville, MD, USA) according to the manufacturer’s instructions. All experiments were performed in triplicate.

[3] = test system: A549 (human lung carcinoma); assay: Cytotoxicity assay (Cell Counting Kit-8), A549; type: cell-based; conditions: 72 h of drug treatment, means ± SD of 3 independent experiments
Protocol: as §1

[4] = test system: Hep-3B (human liver carcinoma); assay: Cytotoxicity assay (Cell Counting Kit-8), Hep-3B; type: cell-based; conditions: 72 h of drug treatment, means ± SD of 3 independent experiments
Protocol: as §1

[5] = test system: HT29 (human colon carcinoma); assay: Cytotoxicity assay (Cell Counting Kit-8), HT29; type: cell-based; conditions: 72 h of drug treatment, means ± SD of 3 independent experiments
Protocol: as §1

[6] = test system: U937 (human monoblastic leukemia); assay: Cytotoxicity assay (Cell Counting Kit-8), U937; type: cell-based; conditions: for IC50: 72 h of drug treatment, Cell Counting Kit-8, means ± SD of 3 independent experiments; for times less potent than 1 and 2: U937 cell lines, SAR comparison
Protocol: as §1

[7] = test system: A549, Hep-3B, PC-3, HT29, and U937 cancer cells; assay: Antiproliferative activity, panel of five cancer cell lines; type: cell-based; conditions: Homo sapiens, read-out: IC50 values, range over five cancer cell lines
Protocol: as §1

[8] = test system: normal mouse RAW 264.7 macrophages; assay: Cytotoxicity assay (Cell Counting Kit-8), RAW 264.7; type: cell-based; conditions: for IC50: normal mouse macrophage cell line, 72 h of drug treatment, Cell Counting Kit-8; for toxicity against normal mouse RAW 264.7 macrophages compared with cancer cells: in words
Protocol: as §1

U937 cells [9] = assay: Measurement of intracellular ROS generation (DCFDA); type: cell-based, human; conditions: for intracellular ROS levels compared to control: 5 µM mesonol A or 10 µM mesonol B, 30 min, DCFH-DA
Protocol: U937 cells were seeded onto 96-well microplates at a final concentration of 1 × 10^5 cells per well and treated with mesonol A or B (5 or 10 µM) for 30 min with or without pretreatment with N-acetylcysteine (NAC) (10 mM) for 1 h. The cells were stained with 2′,7′-dichlorofluorescin diacetate (DCFDA) Cellular Reactive Oxygen Species Detection Assay Kit (Abcam, Cambridge, UK) solution (20 µM) and then incubated at 37 °C for 30 min in the dark. Fluorescence measurements were performed with a fluorescence plate reader (Bio-Rad, Hercules, CA, USA) at Ex/Em = 485/535 nm in end point mode in the presence of compounds, medium, or buffer. All experiments were performed in triplicate.

U937 cells [10] = assay: Western blot analysis of cell cycle regulators and apoptosis-related proteins; type: cell-based, human
Protocol: Cells were lysed in RIPA buffer with phenylmethylsulfonyl fluoride (PMSF; Beyotime Biotechnology, Jiangsu, China). The protein concentration was determined using a Bio-Rad protein assay system (Bio-Rad, Hercules, CA, USA). Equivalent amounts of proteins were separated by SDS–PAGE and then transferred to polyvinylidene difluoride membranes (Bio-Rad). After blocking in TBS containing 5% nonfat milk, the membranes were incubated with primary antibodies (1:1000 dilution) at 4 °C for 12 h and then incubated with a horseradish peroxidase-conjugated secondary antibody (1:5000 dilution). Signals were detected on X-ray film using an ECL detection system (Pierce, Rockford, IL, USA). The relative protein levels were calculated based on β-actin as the loading control.

U937 cells [11] = assay: Cell cycle and sub-G1 analysis by flow cytometry (PI staining); type: cell-based, human; conditions: for time course cell cycle analysis: 5 μM mesonol A or 10 μM mesonol B, 3-24 h; for effect of NAC pretreatment on compound-induced cell cycle change (sub-G1 accumulation or G2/M arrest): 10 mM NAC for 1 h, then 5 µM mesonol A 12 h or 10 µM mesonol B 6 h
Protocol: U937 cells were treated with mesonols A (1) or B (2), dosage range: 0.625–10 µM, for the specified time period, fixed in ice-cold 70% ethanol in PBS, suspended in Krishan’s reagent (0.05 mg/mL propidium iodide (PI), 0.1% sodium citrate, 0.02 mg/mL ribonuclease A and 0.3% NP-40), and incubated on ice for 30 min. Data acquisition for 10,000 events was performed with an FACScan system (Becton Dickinson). The distribution of cells in the different phases of the cell cycle was analyzed from the DNA histograms using CELL Quest software. All experiments were performed in triplicate.

CC1(C)CCC[C@]2(C)[C@@H]1CC[C@@]13C[C@@H](CC[C@H]12)[C@@](O)(CO)C3.CC1(C)CCC[C@]2(C)[C@@H]1CC[C@@]13C[C@@H](CC[C@H]12)[C@@](O)(CO)C3.O (single isomer, unassigned; ent-16) [ent-16β,17α-dihydroxykaurane]
cytotoxicity and apoptotic effects [1]: exhibit cytotoxicity and apoptotic effects

CCc1c2c(nc3ccc(OC(=O)N4CCC(N5CCCCC5)CC4)cc13)-c1cc3c(c(=O)n1C2)COC(=O)[C@]3(O)CC [CPT-11, reference compound]
IC50 [2]: 31.03 ± 0.28 µM
IC50 [3]: 15.3 ± 0.42 µM
IC50 [4]: 23.2 ± 0.38 µM
IC50 [5]: 15.1 ± 0.48 µM
IC50 [6]: 4.95 ± 0.43 µM

CC1(C)CCCC2(C)C1CCC13CC(C(O)CC12)C(O)(CO)C3=O (stereo not drawn) [Compound 1, 12α,16β,17-trihydroxy-ent-kaur-15-one]
IC50 [7]: 1.97 to 19.9 µM
IC50 ([2]; Homo sapiens, 72 h): 12.5 ± 0.24 µM
IC50 ([3]; Homo sapiens, A549, 72 h): 17.4 ± 0.28 µM
IC50 ([8]; RAW264.7): > 50 µM
toxicity against normal mouse RAW 264.7 macrophages compared with cancer cells [8]: less toxic against normal mouse RAW 264.7 macrophages
intracellular ROS levels compared to control (U937 cells [9]): did not induce an increase in intracellular ROS levels
G2/M progression proteins cdc25c, cyclin B1, CDK1 (U937 cells [10]; 5 µM, 12 h): decreases in the G2/M progression proteins cdc25c, cyclin B1, and CDK1
p21 protein level (U937 cells [10]; 5 µM, 12 h): significant increase in p21 protein
time course cell cycle analysis (U937 cells [11]): time-dependent accumulation of cells arrested in the G2/M phase
effect on cell population at G2/M phase (U937 cells [11]; 10 μM, 24 h): significant increase in the cell population at G2/M phase
effect of NAC pretreatment on compound-induced cell cycle change (sub-G1 accumulation or G2/M arrest) (U937 cells [11]): little to no effect
effect on percentage of sub-G1 population, dose response (U937 cells [11]; 0.625-10 μM, 24 h, plateau at 5 μM): dose-dependently increased the percentage of the sub-G1 population
IC50 ([4]; Homo sapiens, Hep3B, 72 h): 12.1 ± 0.55 µM
IC50 ([5]; Homo sapiens, HT-29, 72 h): 9.1 ± 0.38 µM
IC50 ([6]; Homo sapiens, U-937, 72 h): 2.66 ± 0.14 µM

CC1(C)CCCC2(C)C1CCC13CC(C(O)CC12)C(CO)C3=O (stereo not drawn) [Compound 2, 12α-hydroxy-16β-hydroxymethyl-ent-kaur-15-one]
IC50 [7]: 1.97 to 19.9 µM
IC50 ([2]; Homo sapiens, 72 h): 4.19 ± 0.31 µM
IC50 ([3]; Homo sapiens, A549, 72 h): 7.39 ± 0.42 µM
IC50 ([8]; RAW264.7): > 50 µM
toxicity against normal mouse RAW 264.7 macrophages compared with cancer cells [8]: less toxic against normal mouse RAW 264.7 macrophages
intracellular ROS levels compared to control (U937 cells [9]): significantly higher than those in control cells
intracellular ROS levels with NAC pretreatment (U937 cells [9]; 10 mM NAC 1 h, then 10 µM mesonol B 30 min): could be blocked by pretreatment with NAC
PARP cleavage (U937 cells [10]; 10 µM, 6 h): significantly cleaved and activated
antiapoptotic proteins (Bcl-2, Bcl-xL) (U937 cells [10]; 10 µM, 6 h): decreases in antiapoptotic proteins, including Bcl-2 and Bcl-xL
caspase-9 and -3 activation (pro-caspase-9 and -3 protein levels) (U937 cells [10]; 10 µM, 6 h): induced the activation of caspase-9 and -3
proapoptosis-related proteins (Bax, cytochrome c, apaf-1) (U937 cells [10]; 10 µM, 6 h): increases in proapoptosis-related proteins, including Bax, cytochrome c and apaf-1
time course cell cycle analysis (U937 cells [11]): did not cause an obvious accumulation of cells in any phase but significantly increased apoptotic cells in the sub-G1 population
sub-G1 population (U937 cells [11]; 5 μM, 24 h): 6.33%
sub-G1 population (U937 cells [11]; 10 μM, 24 h): 53.86%
effect of NAC pretreatment on compound-induced cell cycle change (sub-G1 accumulation or G2/M arrest) (U937 cells [11]): significantly suppressed
IC50 ([4]; Homo sapiens, Hep3B, 72 h): 7.06 ± 0.38 µM
IC50 ([5]; Homo sapiens, HT-29, 72 h): 2.78 ± 0.03 µM
IC50 ([6]; Homo sapiens, U-937, 72 h): 1.97 ± 0.09 µM

CC1(C)CCCC2(C)C1CCC13CC(C(O)CC21)C(O)(CO)C3O (stereo not drawn) [Compound 3, 12α,15β,16β,17-tetrahydroxy-ent-kaurane]
IC50 [7]: 1.97 to 19.9 µM
IC50 ([2]; Homo sapiens, 72 h): 16.5 ± 0.55 µM
IC50 ([3]; Homo sapiens, A549, 72 h): 17.1 ± 0.36 µM
IC50 ([8]; RAW264.7): > 50 µM
IC50 ([4]; Homo sapiens, Hep3B, 72 h): 17.1 ± 0.73 µM
IC50 ([5]; Homo sapiens, HT-29, 72 h): 14.2 ± 0.31 µM
IC50 [6]: 6.73 ± 0.36 µM
times less potent than 1 and 2 [6]: 2–3 times

CC1(C)CCCC2(C)C1CCC13CC(C(O)CC21)C(O)(CCl)C3O (stereo not drawn) [Compound 4, 12α,15β,16β-trihydroxy-17-chloro-ent-kaurane]
IC50 [7]: 1.97 to 19.9 µM
IC50 ([2]; Homo sapiens, 72 h): 16 ± 0.21 µM
IC50 ([3]; Homo sapiens, A549, 72 h): 19.4 ± 0.38 µM
IC50 ([8]; RAW264.7): > 50 µM
IC50 ([4]; Homo sapiens, Hep3B, 72 h): 19.9 ± 0.73 µM
IC50 ([5]; Homo sapiens, HT-29, 72 h): 12.6 ± 0.55 µM
IC50 ([6]; Homo sapiens, U-937, 72 h): 8.25 ± 0.24 µM
times less potent than 1 and 2 [6]: 2–3 times

CC1(C)CCCC2(C)C1CCC13CC(C(O)CC21)C(O)(CO)C3O (stereo not drawn) [Compound 5, 12α,15β,16α,17-tetrahydroxy-ent-kaurane]
IC50 [2]: > 20 µM
IC50 [3]: > 20 µM
IC50 [8]: > 50 µM
IC50 [4]: > 20 µM
IC50 [5]: > 20 µM
IC50 [6]: > 20 µM

CC1(C)CCCC2(C)C1CCC13C(O)C(C(=O)CC21)C(O)(CO)C3O (stereo not drawn) [Compound 6, 14β,15β,16β,17-tetrahydroxy-ent-kaur-12-one]
IC50 ([2]; Homo sapiens, 72 h): > 20 µM
IC50 ([3]; Homo sapiens, A549, 72 h): > 20 µM
IC50 ([8]; RAW264.7): > 50 µM
IC50 ([4]; Homo sapiens, Hep3B, 72 h): > 20 µM
IC50 ([5]; Homo sapiens, HT-29, 72 h): > 20 µM
IC50 ([6]; Homo sapiens, U-937, 72 h): > 20 µM

CC1(C)CCCC2(C)C1CCC13CC(C(=O)CC21)C(O)(CO)C3O (stereo not drawn) [Compound 7, 15β,16β,17-trihydroxy-ent-kaur-12-one]
IC50 ([2]; Homo sapiens, 72 h): > 20 µM
IC50 ([3]; Homo sapiens, A549, 72 h): > 20 µM
IC50 ([8]; RAW264.7): > 50 µM
IC50 ([4]; Homo sapiens, Hep3B, 72 h): > 20 µM
IC50 ([5]; Homo sapiens, HT-29, 72 h): > 20 µM
IC50 ([6]; Homo sapiens, U-937, 72 h): > 20 µM

C=C1C2CC3C4(C)CCCC(C)(C)C4CCC3(CC2O)C1O (stereo not drawn) [Compound 9, 13α,15β-trihydroxy-ent-atis-16(17)-ene]
IC50 ([2]; Homo sapiens, 72 h): > 20 µM
IC50 ([3]; Homo sapiens, A549, 72 h): > 20 µM
IC50 ([8]; RAW264.7): > 50 µM
IC50 ([4]; Homo sapiens, Hep3B, 72 h): > 20 µM
IC50 ([5]; Homo sapiens, HT-29, 72 h): > 20 µM
IC50 ([6]; Homo sapiens, U-937, 72 h): > 20 µM

C=C1C2CC3C4(C)CCCC(C)(C)C4CCC3(C1O)C(O)C2O (stereo not drawn) [Compound 10, 13α,14β,15β-trihydroxyl-ent-atis-16-ene]
IC50 ([2]; Homo sapiens, 72 h): > 20 µM
IC50 ([3]; Homo sapiens, A549, 72 h): > 20 µM
IC50 ([8]; RAW264.7): > 50 µM
IC50 ([4]; Homo sapiens, Hep3B, 72 h): > 20 µM
IC50 ([5]; Homo sapiens, HT-29, 72 h): > 20 µM
IC50 ([6]; Homo sapiens, U-937, 72 h): > 20 µM

CC1(C)CCCC2(C)C1CCC13CC=C(CO)C1OC(=O)CC23 (stereo not shown) [Compound 11, sarcopetal-13(16)-en-17-ol-12,15-olide]
IC50 ([2]; Homo sapiens, 72 h): > 20 µM
IC50 ([3]; Homo sapiens, A549, 72 h): > 20 µM
IC50 ([8]; RAW264.7): > 50 µM
IC50 ([4]; Homo sapiens, Hep3B, 72 h): > 20 µM
IC50 ([5]; Homo sapiens, HT-29, 72 h): > 20 µM
IC50 ([6]; Homo sapiens, U-937, 72 h): > 20 µM

Reference: publication PMC8622523, “New Diterpenoids from Mesona procumbens with Antiproliferative Activities Modulate Cell Cycle Arrest and Apoptosis in Human Leukemia Cancer Cells” (Pharmaceuticals, 2021)
